Test results from patent US20120148677A1, “CONTROLLED RELEASE PARTICLES CONTAINING ACID FIBROBLAST GROWTH FACTOR” (Taipei Veterans General Hospital, priority 2010, published 2012).

What was measured:
PC-12 cells = assay: 6-OHDA neurotoxicity in PC-12 cells, MTT cell viability assay; format: cell-based
Protocol: The neurotoxicity was test by PC-12 cells which were rat pheochromocytoma cell line. The cells were supplied by the Bioresource Collection and Research Center, Food Industry Research and Development Institute, Hsinchu, Taiwan, and maintained in RPMI 1640 supplemented with 10% HBS, 5% FBS, 1% penicillin/streptomycin (Gibco) at 37° C. in a humidified atmosphere containing 5% CO2 and the culture medium was changed every 2 days.
6-hydroxydopamin (6-OHDA) is a neurotoxin, which leads to apoptosis of catecholaminergic cells. This pharmacological mechanism can be used to test neuron protecting efficiency of aimed drugs. The cells were seeded in 96 well plates at a density of 4×10^4 cells/well, which were pre-coated with collagen. Following 24 hrs of starvation, the medium was changed into 5% serum. The experimental groups were given different treatments and added with 6-OHDA (sigma) until reaching the concentration of 100 uM. The medium without 6-OHDA works as control. The relative number of viable cells was monitored by MTT assay.
MTT (3-(4,5-Dimethylthiazol-2-yl)-2,5-diphenyltetrazolium bromide) was a tetrazolium salt that can be reduced to purple-colored formazan by normal cell. The stock solution of MTT (5 mg/ml) was added into each well to make the medium of 0.5 mg/ml MTT and cells were incubated for 4 h. The supernatant was removed to obtain the MTT metabolic product, formazan, which was then dissolved in 120 ul DMSO (dimethylsulfoxide, sigma) and placed on a shaking table for 5 min until thoroughly dissolved. 100 ul of dissolved-formazan from each well was transferred into another plate to measure the absorbance with 560 nm at background 670 nm.
The dosage used was 100 uM, which caused about 40% apoptosis. […] The empty particles (without aFGF) and the particles entrapping an aFGF were soaked in culture medium for 2 days at 4° C. The supernatant was then collected and diluted at different concentrations for treatment of the 6-OHDA-damaged PC-12 cells.

trypsin = biological target: T1, trypsin (Bos taurus, UniProt P00760); assay: Proteolytic sensitivity to trypsin digestion, Western blot; format: in vitro ADME; settings: after 5 min of digestion, aFGF:trypsin 1:400, PBS, 37° C.
T1 construct: purchased Sigma T1426
T1 sequence (P00760 24-246): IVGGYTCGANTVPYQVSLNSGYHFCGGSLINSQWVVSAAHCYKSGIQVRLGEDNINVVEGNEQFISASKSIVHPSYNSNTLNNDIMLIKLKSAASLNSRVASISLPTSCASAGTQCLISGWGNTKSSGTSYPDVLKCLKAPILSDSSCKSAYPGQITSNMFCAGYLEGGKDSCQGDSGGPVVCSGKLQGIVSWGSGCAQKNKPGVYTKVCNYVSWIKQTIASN
Protocol: In order to test how well of the particles can protect aFGF from an enzyme digestion, we mixed aFGF or the particles entrapping aFGF with a protein enzyme, trypsin. The aFGF and trypsin (Sigma, T1426) was mixed with the ratio of 1:400 in PBS bathed at 37° C. Ten microliters of product was taken out at various time intervals to mix with 10 ul of 2×SDS-sample buffer. The solution was then immediately being boiled for 5 mins to cease enzyme reaction.
As shown in the results, the binding of aFGF to heparin increased the stability to overcome the challenge in vivo. To simulate physiological environment, the experiment was held at 37° C. The intact aFGF and aFGF in the particles of the invention were digested by Trypsin respectively, and aFGF antibody was used to detect the remaining aFGF. With the increase in time of enzyme digestion, the amount of aFGF decreases.

Compound	apoptosis (PC-12 cells; 100 uM 6-OHDA, PC-12 cells)	EC50 (PC-12 cells; Rattus norvegicus, PC-12, read-out: ED50 (neurotoxicity)) [µM]	remaining aFGF band after trypsin digestion (trypsin)	survival rate (PC-12 cells; 10 pg/ml aFGF, 100 uM 6-OHDA, PC-12 cells)	survival rate (PC-12 cells; 10 ng/ml aFGF, 100 uM 6-OHDA, PC-12 cells) [%]	effect on PC-12 death (PC-12 cells; 6-OHDA-treated PC-12 cells, FIG. 5)
NCCc1cc(O)c(O)cc1O [6-OHDA, 6-hydroxydopamin, reference compound]	about 40%	~125	–	–	–	–
acid fibroblast growth factor [aFGF]	–	–	almost disappeared	more than 72.63%	88.41	significantly blocks PC-12 death
